Counter-ions that a name gives are not always drawn. Where only a bound is given, the exact number is not on record here.

Test [1] addresses T1, human dopamine D1 receptor (Homo sapiens, UniProt P21728).
T1 construct: A 1.4 Kb Hind III to Xho I fragment was subcloned into the vector pMMLV; expressed in transfected cells; host or cells: CHO cells, clone CHO-D1M#9 (plasmid pHD1MMLV), membranes
Kind of test: [3H]-SCH-23390 binding to cloned human dopamine D1 receptors (CHO cell membranes). To be noted: competitive binding, [3H]-SCH-23390, cloned human D1 in CHO membranes; read-out: D1 affinity Ki.

For test [2], the target named is T2, D1 receptor (Homo sapiens, UniProt P21728).
T2 construct: expressed in transfected cells; host or cells: D1 transfected CHO cell line
T2 sequence (P21728 whole entry): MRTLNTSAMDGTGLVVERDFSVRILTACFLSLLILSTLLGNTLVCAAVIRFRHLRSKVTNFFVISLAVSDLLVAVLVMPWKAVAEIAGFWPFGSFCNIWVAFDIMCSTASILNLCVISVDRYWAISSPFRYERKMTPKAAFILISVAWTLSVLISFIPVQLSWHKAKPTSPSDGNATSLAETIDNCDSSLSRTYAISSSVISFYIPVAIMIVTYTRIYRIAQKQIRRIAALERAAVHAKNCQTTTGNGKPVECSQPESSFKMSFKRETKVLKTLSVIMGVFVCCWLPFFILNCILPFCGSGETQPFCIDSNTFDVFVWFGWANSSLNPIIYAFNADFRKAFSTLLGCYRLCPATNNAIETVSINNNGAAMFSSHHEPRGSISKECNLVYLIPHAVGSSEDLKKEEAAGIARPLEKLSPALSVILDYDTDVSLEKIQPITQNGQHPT
Kind of test: D1 Activation Adenylyl Cyclase Assay (cAMP FlashPlate, D1 transfected CHO cell line). The test is classed as cell-based. Conditions: agonist activity at the D1 receptor, adenylate cyclase assay, D1 transfected CHO cell line; read-out: D1 EC50. In outline: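 D1-transfected CHO cells (50,000/well) were exposed to compound 1/10 serial dilutions for 8 min at RT; cAMP measured by competitive 125I-cAMP FlashPlate against a standard curve. Response normalised between basal and saturating D1 agonist; EC50 at half-maximal stimulation, plateau reported as % maximal dopamine stimulation.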

For test [3], the target named is human dopamine D2Long (D2L) receptors (Homo sapiens, UniProt P14416).
Chain of human dopamine D2Long (D2L) receptors (P14416 whole entry): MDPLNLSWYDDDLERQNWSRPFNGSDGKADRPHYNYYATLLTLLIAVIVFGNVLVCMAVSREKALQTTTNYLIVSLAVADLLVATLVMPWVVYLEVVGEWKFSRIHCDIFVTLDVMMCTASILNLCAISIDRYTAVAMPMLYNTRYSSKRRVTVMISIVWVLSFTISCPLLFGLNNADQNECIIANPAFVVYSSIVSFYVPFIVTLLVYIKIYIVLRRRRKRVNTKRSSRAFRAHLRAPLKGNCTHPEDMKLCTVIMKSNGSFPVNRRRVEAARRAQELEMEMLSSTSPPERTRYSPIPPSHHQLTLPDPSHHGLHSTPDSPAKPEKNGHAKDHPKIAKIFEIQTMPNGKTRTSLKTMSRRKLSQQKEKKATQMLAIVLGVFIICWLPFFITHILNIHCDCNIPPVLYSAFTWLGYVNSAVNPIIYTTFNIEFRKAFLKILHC

T1 sequence (P21728 whole entry, the tested form may be a part): as the sequence (P21728 whole entry) above

The term Ki denotes the dissociation constant of the complex between target and ligand, obtained from inhibition or displacement. What is called EC50 is the concentration that produces a half-maximal response. Take `Cc1ccc2c(c1O)C[C@@H](C1CCN(Cc3ccc(Cl)cc3Cl)CC1)O[C@H]2CN` [Example 59, (1R,3S)-1-Aminomethyl-3-[1-(2,4-dichloro-benzyl)-piperidin-4-yl]-6-methyl-isochroman-5-ol dihydrochloride]: the Ki is 46.2 nM in test [1] and 443 nM in test [3]. In addition, the EC50 in test [2] was 12 nM.
The like results for `Cc1ccc2c(c1O)C[C@@H](C1CCN(Cc3ccc(Cl)c(Cl)c3)CC1)O[C@H]2CN` [Example 60, (1R,3S)-1-Aminomethyl-3-[1-(3,4-dichloro-benzyl)-piperidin-4-yl]-6-methyl-isochroman-5-ol dihydrochloride] were, in that order, 11.8 nM, 364 nM and 160 nM.
The like results for `Cc1cccc(CN2CCC([C@@H]3Cc4c(ccc(C)c4O)[C@H](CN)O3)CC2)c1` [Example 65, (1R,3S)-1-Aminomethyl-6-methyl-3-[1-(3-methyl-benzyl)-piperidin-4-yl]-isochroman-5-ol dihydrochloride] were, in that order, 34 nM, 288 nM and 11 nM.
The like results for `Cc1ccc2c(c1O)C[C@@H](C1CCN(Cc3cccc(C(F)(F)F)c3)CC1)O[C@H]2CN` [Example 73, (1R,3S)-1-Aminomethyl-6-methyl-3-[1-(3-trifluoromethyl-benzyl)-piperidin-4-yl]-isochroman-5-ol dihydrochloride] were, in that order, 63.5 nM, 431 nM and 15 nM.
For the molecule `Cc1ccc2c(c1O)C[C@@H](C1CCN(Cc3ccc(C(F)(F)F)cc3)CC1)O[C@H]2CN` [Example 74, (1R,3S)-1-Aminomethyl-6-methyl-3-[1-(4-trifluoromethyl-benzyl)-piperidin-4-yl]-isochroman-5-ol dihydrochloride], the figures for the Ki in test [1] and in test [3] were 57 nM and 655 nM, respectively. Besides, the EC50 in test [2] was 6 nM.
In the same order, the values of `Cc1ccc2c(c1O)C[C@@H](C1CCN(Cc3cc(C(F)(F)F)cc(C(F)(F)F)c3)CC1)O[C@H]2CN` [Example 75, (1R,3S)-1-Aminomethyl-3-[1-(3,5-bis-trifluoromethyl-benzyl)-piperidin-4-yl]-6-methyl-isochroman-5-ol dihydrochloride] are 42 nM, 120 nM and 220 nM.
In the same order, the values of `Cc1ccc2c(c1O)C[C@@H](C1CCN(Cc3cc(C(F)(F)F)ccc3C(F)(F)F)CC1)O[C@H]2CN` [Example 76, (1R,3S)-1-Aminomethyl-3-[1-(2,5-bis-trifluoromethyl-benzyl)-piperidin-4-yl]-6-methyl-isochroman-5-ol dihydrochloride] are 92 nM, 41 nM and 580 nM.
Take `Cc1ccc2c(c1O)C[C@@H](C1CCN(Cc3cc(C(F)(F)F)ccc3Cl)CC1)O[C@H]2CN` [Example 77, (1R,3S)-1-Aminomethyl-3-[1-(2-chloro-5-trifluoromethyl-benzyl)-piperidin-4-yl]-6-methyl-isochroman-5-ol dihydrochloride]: the Ki is 36 nM in test [1] and 40 nM in test [3]. Moreover, the EC50 in test [2] was found to be 80 nM.
The like results for `Cc1ccc2c(c1O)C[C@@H](C1CCN(Cc3ccc(Cl)c(C(F)(F)F)c3)CC1)O[C@H]2CN` [Example 78, (1R,3S)-1-Aminomethyl-3-[1-(4-chloro-3-trifluoromethyl-benzyl)-piperidin-4-yl]-6-methyl-isochroman-5-ol dihydrochloride] were, in that order, 14 nM, 197 nM and 2 nM.
The like results for `Cc1ccc2c(c1O)C[C@@H](C1CCN(Cc3cc4ccccc4o3)CC1)O[C@H]2CN` [Example 85, (1R,3S)-1-Aminomethyl-3-(1-benzofuran-2-ylmethyl-piperidin-4-yl)-6-methyl-isochroman-5-ol dihydrochloride] were, in that order, 25.6 nM, 389 nM and 16 nM.
In the same order, the values of `Cc1ccc2c(c1O)C[C@@H](C1CCN(Cc3sc4ccccc4c3C)CC1)O[C@H]2CN` [Example 86, (1R,3S)-1-Aminomethyl-6-methyl-3-[1-(3-methyl-benzo[b]thiophen-2-ylmethyl)-piperidin-4-yl]-isochroman-5-ol dihydrochloride] are 39.9 nM, 97.6 nM and 77 nM.
Regarding `Cc1ccc2c(c1O)C[C@@H](C1CCN(Cc3csc4ccccc34)CC1)O[C@H]2CN` [Example 87, (1R,3S)-1-Aminomethyl-6-methyl-3-(1-benzo[b]thiophen-3-ylmethyl-piperidin-4-yl)-isochroman-5-ol dihydrochloride], the Ki in test [1] turned out to be 23.9 nM; in test [3], 23.8 nM. In test [2], the EC50 came to 27 nM.
As for `Cc1ccc2c(c1O)C[C@@H](C1CCN(Cc3cc4ccccc4n3C)CC1)O[C@H]2CN` [Example 88, (1R,3S)-1-Aminomethyl-6-methyl-3-[1-(1-methyl-1H-indol-2-ylmethyl)-piperidin-4-yl]-isochroman-5-ol dihydrochloride], the Ki in test [1] was determined as 66.5 nM; in test [3], 109 nM. Moreover, the EC50 in test [2] came to 29 nM.
In the same order, the values of `Cc1ccc2c(c1O)C[C@@H](C1CCN(Cc3c[nH]c4ccccc34)CC1)O[C@H]2CN` [Example 89, (1R,3S)-1-Aminomethyl-3-[1-(1H-indol-3-ylmethyl)-piperidin-4-yl]-6-methyl-isochroman-5-ol dihydrochloride] are 18.9 nM, 199 nM and 8 nM.
With `Cc1ccc2c(c1O)C[C@@H](C1CCN(Cc3cn(C)c4ccccc34)CC1)O[C@H]2CN` [Example 90, (1R,3S)-1-Aminomethyl-6-methyl-3-[1-(1-methyl-1H-indol-3-ylmethyl)-piperidin-4-yl]-isochroman-5-ol trihydrochloride], the inhibition constant Ki is 42.3 nM in test [1] and 2.4 nM in test [3]. For the same molecule, the EC50 in test [2] worked out at 9 nM.
The like results for `Cc1ccc2c(c1O)C[C@@H](C1CCN(Cc3cn(Cc4ccccc4)c4ccccc34)CC1)O[C@H]2CN` [Example 91, (1R,3S)-1-Aminomethyl-3-[1-(1-benzyl-1H-indol-3-ylmethyl)-piperidin-4-yl]-6-methyl-isochroman-5-ol dihydrochloride] were, in that order, 40.7 nM, 43.4 nM and 12 nM.
Take `Cc1ccc2c(c1O)C[C@@H](C1CCN(Cc3nc4ccccc4n3C)CC1)O[C@H]2CN` [Example 92, (1R,3S)-1-Aminomethyl-6-methyl-3-[1-(1-methyl-1H-benzoimidazol-2-ylmethyl)-piperidin-4-yl]-isochroman-5-ol trihydrochloride]: the Ki in test [1] was found to be 29.2 nM; in test [3], 93.4 nM. Besides, the EC50 in test [2] came to 0.98 nM.
In the same order, the values of `CNC[C@@H]1O[C@H](C2CCN(CCc3ccccc3)CC2)Cc2c1ccc(C)c2O` [Example 94, (1R,3S)-6-Methyl-1-methylaminomethyl-3-(1-phenethyl-piperidin-4-yl)-isochroman-5-ol dihydrochloride] are 113 nM, 285 nM and 35 nM.
In the same order, the values of `CNC[C@@H]1O[C@H](C2CCN(Cc3ccc(F)cc3)CC2)Cc2c1ccc(C)c2O` [Example 95, 1R,3S)-3-[1-(4-Fluoro-benzyl)-piperidin-4-yl]-6-methyl-1-methylaminomethyl-isochroman-5-ol dihydrochloride] are 121 nM, 456 nM and 250 nM.
The like results for `CNC[C@@H]1O[C@H](C2CCN(Cc3ccc(C(C)C)cc3)CC2)Cc2c1ccc(C)c2O` [Example 97, (1R,3S)-3-[1-(4-Isopropyl-benzyl)-piperidin-4-yl]-6-methyl-1-methylaminomethyl-isochroman-5-ol dihydrochloride] were, in that order, 53.1 nM, 357 nM and 66 nM.
Consider `CNC[C@@H]1O[C@H](C2CCN(Cc3ccc(-c4ccccc4)cc3)CC2)Cc2c1ccc(C)c2O` [Example 98, (1R,3S)-3-(1-Biphenyl-4-ylmethyl-piperidin-4-yl)-6-methyl-1-methylaminomethyl-isochroman-5-ol dihydrochloride], for which the Ki in test [1] turned out to be 60.3 nM; in test [3], 239 nM. Moreover, the 50% effective concentration (EC50) in test [2] came to 15 nM.
The like results for `CNC[C@@H]1O[C@H](C2CCN(Cc3ccc(OC)cc3)CC2)Cc2c1ccc(C)c2O` [Example 99, (1R,3S)-3-[1-(4-Methoxy-benzyl)-piperidin-4-yl]-6-methyl-1-methylaminomethyl-isochroman-5-ol dihydrochloride] were, in that order, 53.1 nM, 307 nM and 22 nM.
`CNC[C@@H]1O[C@H](C2CCN(Cc3ccc(F)c(F)c3)CC2)Cc2c1ccc(C)c2O` [Example 100, (1R,3S)-3-[1-(3,4-Difluoro-benzyl)-piperidin-4-yl]-6-methyl-1-methylaminomethyl-isochroman-5-ol dihydrochloride]: the Ki in test [1] is 43.1 nM; in test [3], no less than 100000 nM. For the same molecule, the EC50 in test [2] is 60 nM.
The like results for `CNC[C@@H]1O[C@H](C2CCN(Cc3ccc(C)cc3)CC2)Cc2c1ccc(C)c2O` [Example 101, (1R,3S)-6-Methyl-1-methylaminomethyl-3-[1-(4-methyl-benzyl)-piperidin-4-yl]-isochroman-5-ol dihydrochloride] were, in that order, 92.2 nM, 322 nM and 33 nM.
